Data reported in PMC3355656 (2012).

Target: CDK9 (Homo sapiens, UniProt P50750)
Experiment: DSF thermal shift
Type: binding

Sequence of CDK9 (P50750 1-330): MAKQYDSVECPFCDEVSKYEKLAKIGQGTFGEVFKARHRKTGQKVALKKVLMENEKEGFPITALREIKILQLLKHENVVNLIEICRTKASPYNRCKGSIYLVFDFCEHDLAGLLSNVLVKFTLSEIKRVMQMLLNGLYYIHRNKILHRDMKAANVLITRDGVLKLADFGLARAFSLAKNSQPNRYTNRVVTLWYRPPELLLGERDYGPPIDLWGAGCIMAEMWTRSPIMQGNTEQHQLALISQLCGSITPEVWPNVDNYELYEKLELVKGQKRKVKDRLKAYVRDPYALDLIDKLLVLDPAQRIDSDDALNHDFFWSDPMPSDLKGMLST
Sequence of CDK9 (O60563 1-259 partner): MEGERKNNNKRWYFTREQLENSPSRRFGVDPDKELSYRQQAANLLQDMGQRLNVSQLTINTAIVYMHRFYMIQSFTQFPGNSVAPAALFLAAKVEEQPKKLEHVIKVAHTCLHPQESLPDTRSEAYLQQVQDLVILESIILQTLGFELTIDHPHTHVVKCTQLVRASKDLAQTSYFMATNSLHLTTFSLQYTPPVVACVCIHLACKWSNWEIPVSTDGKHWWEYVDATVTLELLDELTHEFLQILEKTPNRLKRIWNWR

Structure (SMILES): OC[C@H]1O[C@@H](n2cnc3cc(Cl)c(Cl)cc32)[C@H](O)[C@@H]1O [DRB]
- DSF thermal shift (no Kd): we tested the ability of known CDK9 inhibitors (DRB, CAN508, (S)-CR8, Roscovitine, Staurosporine
